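Cultured in 96-well plates, cells were exposed to test compound for 48 hours across five concentrations. The concentration for 50% growth inhibition is given as GI50.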 Activity calls are given as the source filed them. Rule as the data show it: active = GI50 up to about 1.1 µM and inactive = higher.
Legend:
Test in all cases: NCI anticancer screen, dose series, 48 h
COLO 205 = test system: COLO 205
HL-60 = test system: HL-60
Hs-578T = test system: Hs-578T
KM12 = test system: KM12
M14 = test system: M14
MDA-MB-435 = test system: MDA-MB-435
MOLT-4 = test system: MOLT-4
NCI-H522 = test system: NCI-H522
NCI/ADR-RES = test system: NCI/ADR-RES
OVCAR-4 = test system: OVCAR-4
OVCAR-8 = test system: OVCAR-8
RPMI-8226 = test system: RPMI-8226
SF-295 = test system: SF-295
SF-539 = test system: SF-539
SK-MEL-2 = test system: SK-MEL-2
SK-MEL-5 = test system: SK-MEL-5
SNB-75 = test system: SNB-75
SW-620 = test system: SW-620
UACC-257 = test system: UACC-257
UACC-62 = test system: UACC-62

Measured: GI50

c1ccc2c(c1)ccc1ncccc12
inactive: COLO 205 > 100 µM | HL-60 > 100 µM | Hs-578T > 100 µM | KM12 > 100 µM | M14 > 100 µM | MDA-MB-435 > 100 µM | MOLT-4 > 100 µM | NCI-H522 > 100 µM | NCI/ADR-RES > 100 µM | OVCAR-4 > 100 µM | OVCAR-8 > 100 µM | RPMI-8226 > 100 µM | SF-295 > 100 µM | SF-539 > 100 µM | SK-MEL-2 > 100 µM | SK-MEL-5 75.2 µM | SNB-75 > 100 µM | SW-620 > 100 µM | UACC-257 > 100 µM | UACC-62 83.8 µM

Source: ChEMBL document CHEMBL1201862, “PubChem BioAssay data set” (2004)
